Laboratory results: US11802120B2, “Fused cyclic urea derivatives as CRHR2 antagonist” (RaQualia Pharma Inc., priority 2018, dated 2023)

Legend:
Type in all cases: cell-based
[1] = biological target: T1, CRHR2 (Homo sapiens, UniProt Q13324); test: CRHR2 antagonistic activity (inhibitory activity against CRHR2)
T1 sequence (Q13324 1-411): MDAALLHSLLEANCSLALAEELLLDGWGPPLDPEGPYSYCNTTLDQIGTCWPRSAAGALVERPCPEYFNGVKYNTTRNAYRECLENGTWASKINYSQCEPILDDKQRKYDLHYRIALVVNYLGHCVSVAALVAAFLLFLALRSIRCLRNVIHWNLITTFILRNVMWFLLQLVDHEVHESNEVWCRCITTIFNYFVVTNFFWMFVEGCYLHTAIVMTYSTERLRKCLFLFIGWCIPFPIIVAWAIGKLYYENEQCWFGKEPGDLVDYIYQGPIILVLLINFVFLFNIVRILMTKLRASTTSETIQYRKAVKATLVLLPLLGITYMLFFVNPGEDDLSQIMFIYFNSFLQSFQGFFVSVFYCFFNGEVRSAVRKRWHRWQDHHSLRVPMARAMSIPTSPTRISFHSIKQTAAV

[2] = biological target: T2, human CRHR2-alpha (Homo sapiens, UniProt Q13324); test: cAMP functional assay for human CRHR2 (LANCE Ultra cAMP, TR-FRET); details: CHO-K1 cells expressing human CRHR2-alpha, agonist human urocortin2 at EC80, cAMP; read-out: IC50 against CRHR2
T2 sequence (Q13324 1-411): T1 sequence (Q13324 1-411)
Procedure, shortened: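 CHO-K1 stable lines; 4,000 cells/well; compound 30 min, 25° C; EC80 agonist (human urocortin2 → CRHR2, CRF → CRHR1) 30 min, 25° C; buffer HBSS/0.1% BSA/0.5 mM IBMX/5 mM Hepes pH 7.4; Eu-cAMP tracer + ULight antibody 60 min; TR-FRET read; IC50 from % inhibition curves.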

[3] = biological target: T3, human CRHR1-beta (Homo sapiens, UniProt P34998); test: cAMP functional assay for human CRHR1 (LANCE Ultra cAMP, TR-FRET); details: CHO-K1 cells expressing human CRHR1-beta, agonist CRF at EC80, cAMP; read-out: IC50 against CRHR1
T3 sequence (P34998 24-444 isoform P34998-1 limits assumed): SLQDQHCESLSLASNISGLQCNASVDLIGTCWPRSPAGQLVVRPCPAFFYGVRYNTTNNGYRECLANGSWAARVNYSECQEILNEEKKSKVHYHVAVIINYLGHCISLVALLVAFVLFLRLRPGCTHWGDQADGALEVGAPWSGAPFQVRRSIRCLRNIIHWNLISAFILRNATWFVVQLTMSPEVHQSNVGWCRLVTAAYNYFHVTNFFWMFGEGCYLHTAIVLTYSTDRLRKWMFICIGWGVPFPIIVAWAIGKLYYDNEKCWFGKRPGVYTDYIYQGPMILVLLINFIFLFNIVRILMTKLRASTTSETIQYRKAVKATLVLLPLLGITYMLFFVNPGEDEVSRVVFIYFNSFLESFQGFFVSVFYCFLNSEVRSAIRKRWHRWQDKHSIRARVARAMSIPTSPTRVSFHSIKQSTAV
Method: cAMP functional assay for human CRHR1 and CRHR2
The ability of the compounds of this invention to inhibit either CRHR2 or CRHR1 is assessed by 3′,5′-cyclic adenosine monophosphate (cAMP) production in cells using the LANCE Ultra cAMP assay kit (ParkinElmer), which are designed based on the homogeneous time-resolved fluorescence resonance energy transfer (TR-FRET) immunoassay.
CHO-K1 (Chinese hamster ovary) cells stably expressing either human CRHR2-alpha (DiscoveRX, Cat. 95-0048C2) or human CRHR1-beta (DiscoveRX, Cat. 95-0047C2) are grown in HAM's F12 media supplemented with 10% fetal bovine serum (FBS), 100 units/mL penicillin, 100 microg/mL hygromycin and 0.5 microg/mL geneticin at 37° C. in 5% CO2 humidified incubator to 80% confluence. After 7 hours starvation treatment in culture media containing 0.1% FBS, the cells are washed with Hanks balanced salt solution (HBSS) and cryopreserved.
For cAMP assay, frozen cells are thawed and washed with HBSS, followed by resuspended in assay buffer (HBSS containing 0.1% bovine serum albumin, 0.5 mM isobutylmethylxanthine and 5 mM Hepes, pH 7.4) at the appropriate concentration for the assay. The cell suspensions are plated on 384-well microplates (Greiner Bio-One) at a density of 4,000 cells per well. After preincubating the cells with various concentrations of the compounds for 30 min at 25° C., an assay buffer containing EC80 concentration of each agonist is added and the cells are incubated for 30 min at 25° C. Human urocortin2 (Peptide Institute) and CRF (Peptide Institute) are used as agonists for CRHR2 and CRHR1, respectively. For the termination of assay, europium-labeled cAMP tracer and ULight (registered trademark) dye labeled cAMP antibodies, both prepared with Lance-Ultra cAMP detection reagent (Perkin Elmer) are added in the plate and incubate for 60 min at 25° C. After incubation, TR-FRET signal is detected by EnVision plate reader (PerkinElmer). The IC50 values for compounds are calculated from dose-response curves by fitting the percent inhibition using XLfit (ID Business Solutions).

| Compound | IC50 [1] [nM] | IC50 [2] [nM] | IC50 [3] [nM] |
| --- | --- | --- | --- |
| Cc1ncc(Cl)cc1C(=O)N[C@H]1CC[C@H](Cn2c(=O)n(C3CCCCC3)c3ccccc32)CC1 [reference compound (A), reference compound] | 3100 |  |  |
| Cc1ncc(Cl)cc1C(=O)N[C@H]1CC[C@H](Cn2c(=O)n(-c3cnc4[nH]ncc4c3)c3ccccc32)CC1 [Example 128, 5-chloro-2-methyl-N-((1r,4r)-4-((2-oxo-3-(1H-pyrazolo[3,4-b]pyridin-5-yl)-2,3-dihydro-1H-benzo[d]imidazol-1-yl)methyl)cyclohexyl)nicotinamide] | 280 | < 300 |  |
| COc1ccc(-n2c(=O)n(C[C@H]3CC[C@H](NC(=O)c4cc(Cl)cnc4C)CC3)c3ccccc32)cn1 [Example 30, 5-chloro-N-((1r,4r)-4-((3-(6-methoxypyridin-3-yl)-2-oxo-2,3-dihydro-1H-benzo[d]imidazol-1-yl)methyl)cyclohexyl)-2-methylnicotinamide] | 60 | < 300 | < 1000 |
| Cc1ncc(Cl)cc1C(=O)N[C@H]1CC[C@H](Cn2c(=O)n(-c3ccc(N(C)CCO)nc3)c3ccccc32)CC1 [Example 64, 5-chloro-N-((1r,4r)-4-((3-(6-((2-hydroxyethyl)(methyl)amino)pyridin-3-yl)-2-oxo-2,3-dihydro-1H-benzo[d]imidazol-1-yl)methyl)cyclohexyl)-2-methylnicotinamide] |  | < 300 | < 1000 |
| Cc1ncc(Cl)cc1C(=O)N[C@H]1CC[C@H](Cn2c(=O)n(-c3cnc4c(ccn4C)c3)c3ccccc32)CC1 [Example 148, 5-chloro-2-methyl-N-((1r,4r)-4-((3-(1-methyl-1H-pyrrolo [2,3-b]pyridin-5-yl)-2-oxo-2,3-dihydro-1H-benzo[d]imidazol-1-yl)methyl)cyclo-hexyl)nicotinamide] | 60 | < 300 |  |
| Cc1ncc(Cl)cc1C(=O)N[C@H]1CC[C@H](Cn2c(=O)n(-c3ccc(N(C)C)nn3)c3ccccc32)CC1 [Example 67, 5-chloro-N-((1r,4r)-4-((3-(6-(dimethylamino)pyridazin-3-yl)-2-oxo-2,3-dihydro-1H-benzo[d]imidazol-1-yl)methyl)cyclohexyl)-2-methylnicotinamide] |  | < 300 | < 1000 |
| CCNc1ccc(-n2c(=O)n(C[C@H]3CC[C@H](NC(=O)c4cc(Cl)cnc4C)CC3)c3ccccc32)cn1 [Example 92, 5-chloro-N-((1r,4r)-4-((3-(6-(ethylamino)pyridin-3-yl)-2-oxo-2,3-dihydro-1H-benzo [d]imidazol-1-yl)methyl)cyclohexyl)-2-methylnico-tinamide] |  | < 300 | < 1000 |

The next lines start with the values.

| IC50 [1] [nM] | IC50 [2] [nM] | IC50 [3] [nM] | Compound |
| --- | --- | --- | --- |
| 390 |  |  | Cc1ncc(Cl)cc1C(=O)N[C@H]1CC[C@H](Cn2c(=O)n(-c3ccccc3)c3ccccc32)CC1 [Example 1, 5-chloro-2-methyl-N-((1r,4r)-4-((2-oxo-3-phenyl-2,3-dihydro-1H-benzo[d]imidazol-1-yl)methyl)cyclohexyl)nicotinamide] |
| 3000 |  |  | CCn1c(=O)n(C[C@H]2CC[C@H](NC(=O)c3cc(Cl)cnc3C)CC2)c2ccccc21 [Example 2.46, reference compound] |
| 13000 |  |  | Cc1ncc(Cl)cc1C(=O)N[C@H]1CC[C@H](Cn2c(=O)n(C)c3ccccc32)CC1 [Example 2.50, reference compound] |
| 280 | < 300 |  | Cc1ncc(Cl)cc1C(=O)N[C@H]1CC[C@H](Cn2c(=O)n(-c3cccnc3)c3ccccc32)CC1 [Example 156, 5-chloro-2-methyl-N-((1r,4r)-4-((2-oxo-3-(pyridin-3-yl)-2,3-dihydro-1H-benzo[d]imidazol-1-yl)methyl)cyclo-hexyl)nicotinamide] |
|  | < 300 | < 1000 | Cc1ccc(-n2c(=O)n(C[C@H]3CC[C@H](NC(=O)c4cc(Cl)cnc4C)CC3)c3ccccc32)cc1 [Example 25, 5-chloro-2-methyl-N-((1r,4r)-4-((2-oxo-3-(p-tolyl)-2,3-dihydro-1H-benzo[d]imidazol-1-yl)methyl)cyclohexyl)nicotinamide] |
|  | < 300 | < 1000 | COc1ccccc1-n1c(=O)n(C[C@H]2CC[C@H](NC(=O)c3cc(Cl)cnc3C)CC2)c2ccccc21 [Example 34, 5-chloro-N-((1r,4r)-4-((3-(2-methoxyphenyl)-2-oxo-2,3-dihydro-1H-benzo[d]imidazol-1-yl)methyl)cyclohexyl)-2-methylnicotinamide] |
| 180 | < 300 |  | Cc1ncc(Cl)cc1C(=O)N[C@H]1CC[C@H](Cn2c(=O)n(Cc3ccccc3)c3ccccc32)CC1 [Example 2, N-((1r,4r)-4-((3-benzyl-2-oxo-2,3-dihydro-1H-benzo[d]imidazol-1-yl)methyl)cyclohexyl)-5-chloro-2-methylnicotinamide] |
